# Patent US20070259375A1, “Biomarkers and Methods for Determining Sensitivity to Epidermal Growth Factor Receptor Modulators in Non-Small Cell Lung Cancer” (Bristol-Myers Squibb Company, priority 2004, published 2007)
# Tests used:
# [1] = test system: A549; assay: Relative drug sensitivity in NSCLC cell lines, BrdU Cell Proliferation ELISA; format: cell-based, human; conditions: A549 cell line, EGFR+
# Method: (§1) The NSCLC cell lines were grown using standard cell culture conditions: DMEM supplemented to contain 10% fetal bovine serum, 100 IU/ml penicillin, […] streptomycin and 2 mM L-glutamine (all from Invitrogen Life Technologies, Carlsbad, Calif.). […] Cytotoxicity was assessed in cells by BrdU Cell Proliferation calorimetric ELISA (Roche Applied Science, Indianapolis, Ind.). This is a calorimetric immunoassay for the quantification of cell proliferation based on the measurement of BrdU incorporation during DNA synthesis. To carry out the assays, the NSCLC cells were plated at 2500-5000 cells/well in 96 well microtiter plates and 24 hours later diluted monoclonal antibody drug was added. […] The cells were incubated at 37° C. for 48 hours at which time the BrdU labeling reagent was added. After two hours the labeling medium was removed and cells were fixed and the DNA was denatured using a FixDenat solution. The anti-BrdU antibody conjugated with peroxidase was added and immune complexes were detected by the subsequent substrate reaction. The reaction product was quantified by measuring the absorbance of the samples in an ELISA reader at […]. The greater the absorbency, the greater the number of live cells. […] Three to six independent BrdU assays were performed for each cell line.
# [2] = test system: ChagoK1; assay: as above; format: cell-based, human; conditions: ChagoK1 cell line
# Method: as §1
# [3] = test system: H226; assay: as above; format: cell-based, human; conditions: H226 cell line, EGFR+
# Method: as §1
# [4] = test system: H522; assay: as above; format: cell-based, human; conditions: H522 cell line, EGFR negative
# Method: as §1
# [5] = test system: L2987; assay: as above; format: cell-based, human; conditions: L2987 cell line
# Method: as §1
# [6] = test system: LX1; assay: as above; format: cell-based, human; conditions: LX1 (LX-1) cell line, EGFR negative
# Method: as §1
# [7] = test system: A549 lung xenograft; assay: In vivo antitumor testing, lung xenograft model; conditions: nude mice
# Method: (§2) Tumors were propagated in nude mice as subcutaneous (sc) transplants using tumor fragments obtained from donor mice. Tumor passage occurred approximately every two to four weeks. Tumors were then allowed to grow to the pre-determined size window (usually between 100-200 mg, tumors outside the range were excluded) and animals were evenly distributed to various treatment and control groups. […] Treated animals were checked daily for treatment related toxicity/mortality. Each group of animals was weighed before the initiation of treatment (Wt1) and then again following the last treatment dose (Wt2). The difference in body weight (Wt2-Wt1) provided a measure of treatment-related toxicity. Tumor response was determined by measurement of tumors with a caliper twice a week, until the tumors reached a predetermined target size of 1 gm or became necrotic. Tumor weights (mg) were estimated from the formula: Tumor weight=(length×width^2)/2 Antitumor activity was determined in terms of primary tumor growth inhibition. This was determined in two ways: (i) calculating the relative median tumor weight (MTW) of treated (T) and control (C) mice at various time points (effects were expressed as % T/C); and (ii) calculating the tumor growth delay (T-C value), defined as the difference in time (days) required for the treated tumors (T) to reach a predetermined target size compared to those of the control group (C). Statistical evaluations of data were performed using Gehan's generalized Wilcoxon test for comparisons of time to reach tumor target size (Gehan 1965). Statistical significance was declared at p<0.05. Antitumor activity was defined as a continuous MTW % T/C≦50% for at least 1 tumor volume doubling time (TVDT) any time after the start of treatment, where TVDT (tumor volume doubling time)=median time (days) for control tumors to reach target size−median time (days) for control tumors to reach half the target size.
# (§3) Treated animals were checked daily for treatment related toxicity/mortality.
# [8] = test system: L2987 lung xenograft; assay: In vivo antitumor testing, lung xenograft model; conditions: nude mice
# Method: as §2, §3
# [9] = test system: LX1 lung xenograft; assay: In vivo antitumor testing, lung xenograft model; conditions: nude mice
# Method: as §2, §3
compound,measurement,setting,value
COc1cc2ncnc(Nc3ccc(F)c(Cl)c3)c2cc1OCCCN1CCOCC1 [gefitinib],resistance/sensitivity classification,[1],resistant
same,resistance/sensitivity classification,[2],sensitive
same,resistance/sensitivity classification,[3],resistant
same,resistance/sensitivity classification,[4],resistant
same,resistance/sensitivity classification,[5],resistant
same,resistance/sensitivity classification,[6],resistant
same,sensitivity of lung xenograft model,[7],borderline sensitive
same,sensitivity of lung xenograft model,[8],sensitive
same,sensitivity of lung xenograft model,[9],resistant
